Data published in ChEMBL document CHEMBL4725353, “Discovery of Pyrido[2,3-b]indole Derivatives with Gram-Negative Activity Targeting Both DNA Gyrase and Topoisomerase IV” (J Med Chem, 2020).
In brackets after ≈: the same amount, converted by molar mass.

Experiments:
in vitro = settings: mouse, liver microsomes
Description: Intrinsic clearance in mouse liver microsomes preincubated for 10 mins followed by NADPH regenerating system addition and measured up to 30 mins by LC/MS-MS analysis

physchem [1] = assay: physchem
Description: Ionization constant (acid), pKa of the compound by photometric titration assay

physchem [2] = settings: PBS, pH 6.5
Description: Solubility of compound in PBS at pH 6.5 incubated for over night by HPLC-UV based lyophilization solubility assay

Escherichia coli [3] = assay: microbe, parasite or virus in culture; settings: ATCC 25922
Description: Antibacterial activity against Escherichia coli ATCC 25922 assessed as reduction in microbial growth preincubated for 20 to 24 hrs followed by subculture in absence of compound and measured on day 4 CLSI based broth microdilution susceptibility method

[4] = Protein binding in plasma (unknown origin) assessed as unbound fraction at 1 uM after 5 hrs by LC/MS-MS analysis; assay type: ADME, cell-free
Acinetobacter baumannii [5] = assay: Antibacterial activity against Acinetobacter baumannii ATCC 19606 assessed as reduction in microbial growth preincubated for 20 to 24 hrs followed by subculture in absence of compound and measured on day 4 CLSI based broth microdilution susceptibility method; assay type: functional; settings: time hrs 20-24
Acinetobacter baumannii [6] = assay: Antibacterial activity against Acinetobacter baumannii ATCC 51432 assessed as reduction in microbial growth preincubated for 20 to 24 hrs followed by subculture in absence of compound and measured on day 4 CLSI based broth microdilution susceptibility method; assay type: functional; settings: time hrs 20-24
Klebsiella pneumoniae [7] = assay: Antibacterial activity against Klebsiella pneumoniae ATCC 10031 assessed as reduction in microbial growth preincubated for 20 to 24 hrs followed by subculture in absence of compound and measured on day 4 CLSI based broth microdilution susceptibility method; assay type: functional; settings: time hrs 20-24
Escherichia coli [8] = assay: Antibacterial activity against Escherichia coli ATCC BAA-2340 assessed as reduction in microbial growth preincubated for 20 to 24 hrs followed by subculture in absence of compound and measured on day 4 CLSI based broth microdilution susceptibility method; assay type: functional; settings: time hrs 20-24
Pseudomonas aeruginosa [9] = assay: Antibacterial activity against Pseudomonas aeruginosa ATCC BAA-2113 assessed as reduction in microbial growth preincubated for 20 to 24 hrs followed by subculture in absence of compound and measured on day 4 CLSI based broth microdilution susceptibility method; assay type: functional; settings: time hrs 20-24
Escherichia coli [10] = assay: microbe, parasite or virus in culture; settings: ATCC 29213
Description: Antibacterial activity against Escherichia coli ATCC 29213 assessed as reduction in microbial growth preincubated for 20 to 24 hrs followed by subculture in absence of compound and measured on day 4 CLSI based broth microdilution susceptibility method

Klebsiella pneumoniae [11] = assay: Antibacterial activity against Klebsiella pneumoniae ATCC 700603 assessed as reduction in microbial growth preincubated for 20 to 24 hrs followed by subculture in absence of compound and measured on day 4 CLSI based broth microdilution susceptibility method; assay type: functional; settings: time hrs 20-24
[12] = Distribution coefficient between octanol and buffer, log D of the compound in pH 7.4 buffer by CAMDIS assay; assay type: physicochemical
Acinetobacter baumannii [13] = assay: Antibacterial activity against Acinetobacter baumannii ATCC BAA-747 assessed as reduction in microbial growth preincubated for 20 to 24 hrs followed by subculture in absence of compound and measured on day 4 CLSI based broth microdilution susceptibility method; assay type: functional; settings: time hrs 20-24
Pseudomonas aeruginosa [14] = assay: Antibacterial activity against Pseudomonas aeruginosa PAO1 assessed as reduction in microbial growth preincubated for 20 to 24 hrs followed by subculture in absence of compound and measured on day 4 CLSI based broth microdilution susceptibility method; assay type: functional; settings: time hrs 20-24
Pseudomonas aeruginosa [15] = assay: Antibacterial activity against Pseudomonas aeruginosa ATCC 27853 assessed as reduction in microbial growth preincubated for 20 to 24 hrs followed by subculture in absence of compound and measured on day 4 CLSI based broth microdilution susceptibility method; assay type: functional; settings: time hrs 20-24
Klebsiella pneumoniae [16] = assay: Antibacterial activity against Klebsiella pneumoniae ATCC BAA-2146 assessed as reduction in microbial growth preincubated for 20 to 24 hrs followed by subculture in absence of compound and measured on day 4 CLSI based broth microdilution susceptibility method; assay type: functional; settings: time hrs 20-24
Escherichia coli [17] = assay: Antibacterial activity against Escherichia coli ATCC 35218 assessed as reduction in microbial growth preincubated for 20 to 24 hrs followed by subculture in absence of compound and measured on day 4 CLSI based broth microdilution susceptibility method; assay type: functional; settings: time hrs 20-24
[18] = Intrinsic clearance in mouse hepatocytes by LC/MS-MS analysis; assay type: ADME, cell-based, Hepatocyte
[19] = AUC/dose in iv dosed CD-1 mouse measured up to 24 hrs by LC-MS/MS analysis; assay type: ADME, organism-based; settings: in vivo
[20] = Half life in iv dosed CD-1 mouse measured up to 24 hrs by LC-MS/MS analysis; assay type: ADME, organism-based; settings: in vivo
[21] = Cmax/dose in iv dosed CD-1 mouse measured up to 24 hrs by LC-MS/MS analysis; assay type: ADME, organism-based; settings: in vivo
[22] = Plasma protein binding in iv dosed CD-1 mouse measured up to 24 hrs by LC-MS/MS analysis; assay type: ADME, organism-based; settings: read-out: PPB (converted)
[23] = Volume of distribution at steady state in iv dosed CD-1 mouse measured up to 24 hrs by LC-MS/MS analysis; assay type: ADME, organism-based; settings: in vivo, read-out: Vdss
[24] = Clearance in iv dosed CD-1 mouse measured up to 24 hrs by LC-MS/MS analysis; assay type: ADME, organism-based; settings: in vivo
[25] = Dissociation constant, pKa of compound by photometric titration assay; assay type: physicochemical

| Structure (SMILES) | CLint scaled at 0.5 h (in vitro) [mL/min/kg] | pKa (physchem [1]) | solubility (physchem [2]) [µg/mL] | MIC (Escherichia coli [3]) [µg/mL] | fraction unbound at 5 h, 1 µM [4] | MIC (Acinetobacter baumannii [5]) [µg/mL] | MIC (Acinetobacter baumannii [6]) [µg/mL] | MIC (Klebsiella pneumoniae [7]) [µg/mL] | MIC (Escherichia coli [8]) [µg/mL] | MIC (Pseudomonas aeruginosa [9]) [µg/mL] | MIC (Escherichia coli [10]) [µg/mL] | MIC (Klebsiella pneumoniae [11]) [µg/mL] | logD [12] | MIC (Acinetobacter baumannii [13]) [µg/mL] | MIC (Pseudomonas aeruginosa [14]) [µg/mL] | MIC (Pseudomonas aeruginosa [15]) [µg/mL] | MIC (Klebsiella pneumoniae [16]) [µg/mL] | MIC (Escherichia coli [17]) [µg/mL] | further results |
| --- | --- | --- | --- | --- | --- | --- | --- | --- | --- | --- | --- | --- | --- | --- | --- | --- | --- | --- | --- |
| CCNc1cc(F)cc2c1[nH]c1ncc(-c3cncc(C#N)c3)c(-n3nc(C(F)(F)F)c4c3CNC4)c12 | 73.2 | 6.57 | < 0.3 | 1 (≈ 1.97 µM) | 0.012 |  |  |  |  |  |  |  |  |  |  |  |  |  |  |
| CCNc1cc(F)cc2c1[nH]c1ncc(-c3cncc(CO)c3)c(-n3ccc(C(F)(F)F)n3)c12 |  |  |  | 0.5 (≈ 1.06 µM) |  | 73 | > 23.5 | 0.183 | 1.47 | 1.47 | < 0.016 | 1.47 | 3.56 | > 23.5 | 4 | > 23.5 | > 23.5 | 1.47 |  |
| CCNc1cc(F)cc2c1[nH]c1ncc(-c3cnc(OC)nc3)c(-n3nc(C(F)(F)F)c4c3CNC4)c12 | 77.4 |  | 4 (≈ 7.81 µM) | 1 (≈ 1.95 µM) | 0.016 |  |  |  |  |  |  |  |  |  |  |  |  |  |  |
| CCNc1cc(F)cc2c1[nH]c1ncc(-c3cncc(C#N)c3)c(-n3ncc4c3CNC4)c12 | 70.3 | 7.62 | 34 (≈ 77.5 µM) | 2 (≈ 4.56 µM) | 0.044 |  |  |  |  |  |  |  |  |  |  |  |  |  | CLH [18]: 74.6 µg/mL |
| CCNc1cc(F)cc2c1[nH]c1ncc(-c3cncc(N)c3)c(-n3ccc(C(F)(F)F)n3)c12 |  | 4.84 |  | 0.25 (≈ 0.549 µM) |  | 1.42 | 5.7 | 0.178 | 2.85 | 1.42 | < 0.016 | 1.42 | 3.44 | 2.85 | 2 | 2.85 | 5.7 | 2.85 |  |
| CCNc1cc(F)cc2c1[nH]c1ncc(-c3cncc(C#N)c3)c(-n3cc(CN)c(C(F)(F)F)n3)c12 | 47 | 8.08 | 90 (≈ 182 µM) | < 0.25 | 0.012 | 1 | 1 | < 0.03 | 2 | 2 |  | 4 |  | 0.5 | 2 |  | 8 | 1 | AUC/dose [19]: 324 kg·ng·h/mL/mg; half-life [20]: 1.8 h; Cmax/dose [21]: 305 kg·ng/mL/mg; fraction unbound at 24 h [22]: 0.11; Vd [23]: 5.8 L/kg; clearance [24]: 50 mL/min/kg; CLH [18]: 48.6 µg/mL |
| CCNc1cc(F)cc2c1[nH]c1ncc(-c3cncc(C(N)=O)c3)c(-n3ccc(C(F)(F)F)n3)c12 |  |  |  | 0.5 (≈ 1.03 µM) |  | 0.76 | 3.02 | 0.09 | 0.76 | 0.76 | < 0.016 | 0.76 | 3.25 | 3.02 | 2 | 0.76 | 3.02 | 0.76 |  |
| CCNc1cc(F)cc2c1[nH]c1ncc(-c3cncc(C(=O)O)c3)c(-n3ccc(C(F)(F)F)n3)c12 |  |  |  | > 16 |  |  |  |  |  |  | 1 (≈ 2.06 µM) |  | 1.9 |  |  |  |  |  | pKa [25]: 3.57 |
